# Data from PMC11480411, “Mucosal sugars delineate pyrazine vs pyrazinone autoinducer signaling in Klebsiella oxytoca” (Nature Communications, 2024).
# What was measured:
# Assay in all cases: PRESTO-Tango GPCR screen
# Type in all cases: cell-based
# Details in all cases: 100 µM
# GAL2 = target: T1, GAL2 (Homo sapiens, UniProt O43603)
# T1 construct: purchased PRESTO-Tango GPCR kit (Roth lab / Addgene)
# Summary of the method: (§1)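 HEK293 HTLA line (stable β-arrestin-TEV, tTA-luciferase); receptor-Tango transient transfection, PEI; 20 h compound exposure at 100 μM final; luciferase luminescence; fold vs PBS. Dose curves 10^−4–10^−15 M.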
# CHRM5 = target: T2, CHRM5 (Homo sapiens, UniProt P08912)
# T2 construct: purchased PRESTO-Tango GPCR kit (Roth lab / Addgene)
# Summary of the method: as §1
# PK1 = target: T3, PK1 (Homo sapiens, UniProt Q8TCW9)
# T3 construct: purchased PRESTO-Tango GPCR kit (Roth lab / Addgene)
# Summary of the method: as §1
# OXTR = target: T4, OXTR (Homo sapiens, UniProt P30559)
# T4 construct: purchased PRESTO-Tango GPCR kit (Roth lab / Addgene)
# Summary of the method: as §1
# ADRB2 = target: T5, ADRB2 (Homo sapiens, UniProt P07550)
# T5 construct: purchased PRESTO-Tango GPCR kit (Roth lab / Addgene)
# Summary of the method: as §1
# PTAFR = target: T6, PTAFR (Homo sapiens, UniProt P25105)
# T6 construct: purchased PRESTO-Tango GPCR kit (Roth lab / Addgene)
# Summary of the method: as §1
# CNR1 = target: T7, CNR1 (Homo sapiens, UniProt P21554)
# T7 construct: purchased PRESTO-Tango GPCR kit (Roth lab / Addgene)
# Summary of the method: as §1
# GPR152 = target: T8, GPR152 (Homo sapiens, UniProt Q8TDT2)
# T8 construct: purchased PRESTO-Tango GPCR kit (Roth lab / Addgene)
# Summary of the method: as §1
# GPR35 = target: T9, GPR35 (Homo sapiens, UniProt Q9HC97)
# T9 construct: purchased PRESTO-Tango GPCR kit (Roth lab / Addgene)
# Summary of the method: as §1
# CNR2 = target: T10, CNR2 (Homo sapiens, UniProt P34972)
# T10 construct: purchased PRESTO-Tango GPCR kit (Roth lab / Addgene)
# Summary of the method: as §1
# HTR6 = target: T11, HTR6 (Homo sapiens, UniProt P50406)
# T11 construct: purchased PRESTO-Tango GPCR kit (Roth lab / Addgene)
# Summary of the method: as §1
# BB3 = target: T12, BB3 (Homo sapiens, UniProt P32247)
# T12 construct: purchased PRESTO-Tango GPCR kit (Roth lab / Addgene)
# Summary of the method: as §1
# GPR34 = target: T13, GPR34 (Homo sapiens, UniProt Q9UPC5)
# T13 construct: purchased PRESTO-Tango GPCR kit (Roth lab / Addgene)
# Summary of the method: as §1
# NPBW1 = target: T14, NPBW1 (Homo sapiens, UniProt P48145)
# T14 construct: purchased PRESTO-Tango GPCR kit (Roth lab / Addgene)
# Summary of the method: as §1
# EDNRA = target: T15, EDNRA (Homo sapiens, UniProt P25101)
# T15 construct: purchased PRESTO-Tango GPCR kit (Roth lab / Addgene)
# Summary of the method: as §1
# SSTR2 = target: T16, SSTR2 (Homo sapiens, UniProt P30874)
# T16 construct: purchased PRESTO-Tango GPCR kit (Roth lab / Addgene)
# Summary of the method: as §1
# OPN5 = target: T17, OPN5 (Homo sapiens, UniProt Q6U736)
# T17 construct: purchased PRESTO-Tango GPCR kit (Roth lab / Addgene)
# Summary of the method: as §1
# OXGR1 = target: T18, OXGR1 (Homo sapiens, UniProt Q96P68)
# T18 construct: purchased PRESTO-Tango GPCR kit (Roth lab / Addgene)
# Summary of the method: as §1
# GPR171 = target: T19, GPR171 (Homo sapiens, UniProt O14626)
# T19 construct: purchased PRESTO-Tango GPCR kit (Roth lab / Addgene)
# Summary of the method: as §1
# TAAR9 = target: T20, TAAR9 (Homo sapiens, UniProt Q96RI9)
# T20 construct: purchased PRESTO-Tango GPCR kit (Roth lab / Addgene)
# Summary of the method: as §1
# GAL1 = target: T21, GAL1 (Homo sapiens, UniProt P47211)
# T21 construct: purchased PRESTO-Tango GPCR kit (Roth lab / Addgene)
# Summary of the method: as §1
# TA1 = target: T22, TA1 (Homo sapiens, UniProt Q96RJ0)
# T22 construct: purchased PRESTO-Tango GPCR kit (Roth lab / Addgene)
# Summary of the method: as §1
# MRGPRX1 = target: T23, MRGPRX1 (Homo sapiens, UniProt Q96LB2)
# T23 construct: purchased PRESTO-Tango GPCR kit (Roth lab / Addgene)
# Summary of the method: as §1
# NPY4R = target: T24, NPY4R (Homo sapiens, UniProt P50391)
# T24 construct: purchased PRESTO-Tango GPCR kit (Roth lab / Addgene)
# Summary of the method: as §1
# DRD3 = target: T25, DRD3 (Homo sapiens, UniProt P35462)
# T25 construct: purchased PRESTO-Tango GPCR kit (Roth lab / Addgene)
# Summary of the method: as §1
# GHRHR = target: T26, GHRHR (Homo sapiens, UniProt Q02643)
# T26 construct: purchased PRESTO-Tango GPCR kit (Roth lab / Addgene)
# Summary of the method: as §1
# TAAR5 = target: T27, TAAR5 (Homo sapiens, UniProt O14804)
# T27 construct: purchased PRESTO-Tango GPCR kit (Roth lab / Addgene)
# Summary of the method: as §1
# GPRC6A = target: T28, GPRC6A (Homo sapiens, UniProt Q5T6X5)
# T28 construct: purchased PRESTO-Tango GPCR kit (Roth lab / Addgene)
# Summary of the method: as §1
# CXCR7 = target: T29, CXCR7 (Homo sapiens, UniProt P25106)
# T29 construct: purchased PRESTO-Tango GPCR kit (Roth lab / Addgene)
# Summary of the method: as §1
# CCKBR = target: T30, CCKBR (Homo sapiens, UniProt P32239)
# T30 construct: purchased PRESTO-Tango GPCR kit (Roth lab / Addgene)
# Summary of the method: as §1
# GPR64 = target: T31, GPR64 (Homo sapiens, UniProt Q8IZP9)
# T31 construct: purchased PRESTO-Tango GPCR kit (Roth lab / Addgene)
# Summary of the method: as §1
# F2R = target: T32, F2R (Homo sapiens, UniProt P25116)
# T32 construct: purchased PRESTO-Tango GPCR kit (Roth lab / Addgene)
# Summary of the method: as §1
# S1PR1 = target: T33, S1PR1 (Homo sapiens, UniProt P21453)
# T33 construct: purchased PRESTO-Tango GPCR kit (Roth lab / Addgene)
# Summary of the method: as §1
# GPR135 = target: T34, GPR135 (Homo sapiens, UniProt Q8IZ08)
# T34 construct: purchased PRESTO-Tango GPCR kit (Roth lab / Addgene)
# Summary of the method: as §1
# TBXA2R = target: T35, TBXA2R (Homo sapiens, UniProt P21731)
# T35 construct: purchased PRESTO-Tango GPCR kit (Roth lab / Addgene)
# Summary of the method: as §1
# HCA3 = target: T36, HCA3 (Homo sapiens, UniProt P49019)
# T36 construct: purchased PRESTO-Tango GPCR kit (Roth lab / Addgene)
# Summary of the method: as §1
# T2 sequence (P08912 whole entry): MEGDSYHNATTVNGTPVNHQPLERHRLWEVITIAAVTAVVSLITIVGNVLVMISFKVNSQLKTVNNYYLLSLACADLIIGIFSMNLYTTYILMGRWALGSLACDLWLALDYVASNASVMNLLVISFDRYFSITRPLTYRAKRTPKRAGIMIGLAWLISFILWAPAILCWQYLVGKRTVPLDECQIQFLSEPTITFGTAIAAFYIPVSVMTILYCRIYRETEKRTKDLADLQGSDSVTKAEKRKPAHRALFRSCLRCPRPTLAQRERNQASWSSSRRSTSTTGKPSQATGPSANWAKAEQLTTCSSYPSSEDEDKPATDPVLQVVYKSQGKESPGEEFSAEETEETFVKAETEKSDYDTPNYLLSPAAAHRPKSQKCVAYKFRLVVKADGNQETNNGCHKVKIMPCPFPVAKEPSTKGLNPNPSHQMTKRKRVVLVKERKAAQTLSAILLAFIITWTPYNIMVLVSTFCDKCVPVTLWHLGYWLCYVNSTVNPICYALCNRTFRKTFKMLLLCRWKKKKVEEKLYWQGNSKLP
# T31 sequence (Q8IZP9 38-1017): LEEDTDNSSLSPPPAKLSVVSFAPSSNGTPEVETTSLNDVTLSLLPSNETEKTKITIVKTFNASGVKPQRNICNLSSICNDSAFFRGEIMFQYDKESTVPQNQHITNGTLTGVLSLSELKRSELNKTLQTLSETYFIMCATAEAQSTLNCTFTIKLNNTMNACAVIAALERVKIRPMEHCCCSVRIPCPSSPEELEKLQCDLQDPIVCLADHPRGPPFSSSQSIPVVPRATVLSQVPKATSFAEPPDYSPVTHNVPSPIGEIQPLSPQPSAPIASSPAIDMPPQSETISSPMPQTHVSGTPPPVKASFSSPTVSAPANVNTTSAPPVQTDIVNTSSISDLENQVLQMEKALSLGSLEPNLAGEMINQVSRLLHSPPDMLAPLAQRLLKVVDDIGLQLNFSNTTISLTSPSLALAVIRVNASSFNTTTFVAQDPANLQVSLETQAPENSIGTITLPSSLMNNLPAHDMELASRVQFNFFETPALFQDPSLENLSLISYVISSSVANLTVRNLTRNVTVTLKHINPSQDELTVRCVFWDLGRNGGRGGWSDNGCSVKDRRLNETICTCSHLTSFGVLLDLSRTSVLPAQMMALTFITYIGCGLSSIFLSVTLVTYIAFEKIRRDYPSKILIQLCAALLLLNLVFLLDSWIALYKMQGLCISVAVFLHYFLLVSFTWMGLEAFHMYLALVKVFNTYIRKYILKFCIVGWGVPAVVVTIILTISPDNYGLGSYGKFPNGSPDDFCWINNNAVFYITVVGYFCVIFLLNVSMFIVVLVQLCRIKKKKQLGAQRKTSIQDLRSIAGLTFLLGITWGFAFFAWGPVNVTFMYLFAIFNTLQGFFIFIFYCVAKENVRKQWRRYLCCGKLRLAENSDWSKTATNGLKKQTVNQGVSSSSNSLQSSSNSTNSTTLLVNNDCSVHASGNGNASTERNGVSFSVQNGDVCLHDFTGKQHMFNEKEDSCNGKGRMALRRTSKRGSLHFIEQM
# T24 sequence (P50391 whole entry): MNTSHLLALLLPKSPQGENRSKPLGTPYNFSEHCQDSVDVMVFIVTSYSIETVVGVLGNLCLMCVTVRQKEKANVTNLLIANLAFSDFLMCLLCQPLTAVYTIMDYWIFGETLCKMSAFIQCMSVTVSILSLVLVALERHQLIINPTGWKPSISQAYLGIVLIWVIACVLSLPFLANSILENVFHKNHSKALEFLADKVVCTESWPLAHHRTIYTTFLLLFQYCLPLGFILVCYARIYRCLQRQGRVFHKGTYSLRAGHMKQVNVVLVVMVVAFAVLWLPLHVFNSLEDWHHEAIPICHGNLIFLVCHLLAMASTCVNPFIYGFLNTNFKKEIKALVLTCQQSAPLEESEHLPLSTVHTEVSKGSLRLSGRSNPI
# T7 sequence (P21554 whole entry): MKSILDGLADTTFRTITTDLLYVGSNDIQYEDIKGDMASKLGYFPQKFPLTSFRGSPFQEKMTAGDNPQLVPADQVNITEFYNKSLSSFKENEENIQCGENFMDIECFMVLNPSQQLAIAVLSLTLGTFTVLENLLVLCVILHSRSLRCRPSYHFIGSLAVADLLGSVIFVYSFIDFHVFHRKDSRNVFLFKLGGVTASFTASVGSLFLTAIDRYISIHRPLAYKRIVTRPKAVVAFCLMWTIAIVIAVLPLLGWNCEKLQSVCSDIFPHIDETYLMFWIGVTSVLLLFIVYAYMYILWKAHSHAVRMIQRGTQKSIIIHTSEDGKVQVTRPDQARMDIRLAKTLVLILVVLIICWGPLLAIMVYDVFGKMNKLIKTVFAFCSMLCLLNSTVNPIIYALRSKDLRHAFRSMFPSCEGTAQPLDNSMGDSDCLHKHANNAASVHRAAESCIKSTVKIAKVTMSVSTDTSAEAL
# T12 sequence (P32247 whole entry): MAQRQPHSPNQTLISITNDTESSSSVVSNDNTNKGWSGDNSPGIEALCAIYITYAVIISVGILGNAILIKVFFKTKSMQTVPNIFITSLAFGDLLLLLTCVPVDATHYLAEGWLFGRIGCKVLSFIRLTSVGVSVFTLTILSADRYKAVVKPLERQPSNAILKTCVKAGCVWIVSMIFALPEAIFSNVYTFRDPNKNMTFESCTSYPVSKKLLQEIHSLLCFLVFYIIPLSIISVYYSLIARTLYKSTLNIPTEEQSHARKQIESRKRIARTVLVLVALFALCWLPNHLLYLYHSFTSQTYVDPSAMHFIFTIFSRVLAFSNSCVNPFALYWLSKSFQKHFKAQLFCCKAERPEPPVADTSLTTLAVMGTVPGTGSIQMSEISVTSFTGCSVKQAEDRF
# T23 sequence (Q96LB2 whole entry): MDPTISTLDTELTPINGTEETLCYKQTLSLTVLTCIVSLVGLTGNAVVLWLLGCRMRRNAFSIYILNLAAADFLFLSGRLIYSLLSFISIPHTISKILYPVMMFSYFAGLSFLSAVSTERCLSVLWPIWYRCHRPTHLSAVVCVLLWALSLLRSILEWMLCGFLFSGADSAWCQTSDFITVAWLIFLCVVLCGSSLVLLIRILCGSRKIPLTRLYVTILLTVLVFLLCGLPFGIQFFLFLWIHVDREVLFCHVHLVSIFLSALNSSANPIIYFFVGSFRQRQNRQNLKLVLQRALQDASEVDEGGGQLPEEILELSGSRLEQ
# T14 sequence (P48145 whole entry): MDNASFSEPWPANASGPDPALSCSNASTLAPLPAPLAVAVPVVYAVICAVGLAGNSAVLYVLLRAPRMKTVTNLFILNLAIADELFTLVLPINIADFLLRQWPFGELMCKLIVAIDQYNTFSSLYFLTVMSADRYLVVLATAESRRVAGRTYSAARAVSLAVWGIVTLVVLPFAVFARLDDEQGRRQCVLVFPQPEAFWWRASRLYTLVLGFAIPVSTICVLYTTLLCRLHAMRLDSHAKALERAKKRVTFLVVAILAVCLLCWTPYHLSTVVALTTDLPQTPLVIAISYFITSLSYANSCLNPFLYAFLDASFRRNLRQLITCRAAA
# T4 sequence (P30559 whole entry): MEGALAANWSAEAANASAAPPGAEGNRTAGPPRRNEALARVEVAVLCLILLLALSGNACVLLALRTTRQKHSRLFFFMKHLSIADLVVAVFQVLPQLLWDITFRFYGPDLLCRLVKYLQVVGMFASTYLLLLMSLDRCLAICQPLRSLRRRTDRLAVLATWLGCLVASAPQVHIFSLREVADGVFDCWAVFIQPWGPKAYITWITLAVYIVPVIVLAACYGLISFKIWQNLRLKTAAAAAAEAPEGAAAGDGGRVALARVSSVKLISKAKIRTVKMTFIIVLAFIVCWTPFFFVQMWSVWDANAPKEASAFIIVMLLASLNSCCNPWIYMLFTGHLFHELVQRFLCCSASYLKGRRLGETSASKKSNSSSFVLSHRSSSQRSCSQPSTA
# T16 sequence (P30874 whole entry): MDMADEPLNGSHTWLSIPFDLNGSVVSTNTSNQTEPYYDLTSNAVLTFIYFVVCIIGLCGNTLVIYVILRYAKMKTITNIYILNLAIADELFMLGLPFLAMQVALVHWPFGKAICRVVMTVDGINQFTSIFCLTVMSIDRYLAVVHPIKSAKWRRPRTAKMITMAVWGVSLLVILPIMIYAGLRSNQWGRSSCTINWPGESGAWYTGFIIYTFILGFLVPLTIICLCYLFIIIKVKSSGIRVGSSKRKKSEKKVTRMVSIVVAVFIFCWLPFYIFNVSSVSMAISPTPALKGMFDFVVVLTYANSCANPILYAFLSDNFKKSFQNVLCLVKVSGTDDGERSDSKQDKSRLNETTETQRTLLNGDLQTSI
# T19 sequence (O14626 whole entry): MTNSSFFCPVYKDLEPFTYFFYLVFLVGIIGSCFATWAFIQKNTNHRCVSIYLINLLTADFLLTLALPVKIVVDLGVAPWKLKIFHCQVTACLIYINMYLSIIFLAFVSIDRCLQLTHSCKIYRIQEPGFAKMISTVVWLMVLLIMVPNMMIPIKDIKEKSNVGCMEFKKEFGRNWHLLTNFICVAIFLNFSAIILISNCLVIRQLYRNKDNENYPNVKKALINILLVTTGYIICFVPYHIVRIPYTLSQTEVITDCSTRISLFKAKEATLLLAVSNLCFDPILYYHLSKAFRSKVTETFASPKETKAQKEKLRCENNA
# T1 sequence (O43603 whole entry): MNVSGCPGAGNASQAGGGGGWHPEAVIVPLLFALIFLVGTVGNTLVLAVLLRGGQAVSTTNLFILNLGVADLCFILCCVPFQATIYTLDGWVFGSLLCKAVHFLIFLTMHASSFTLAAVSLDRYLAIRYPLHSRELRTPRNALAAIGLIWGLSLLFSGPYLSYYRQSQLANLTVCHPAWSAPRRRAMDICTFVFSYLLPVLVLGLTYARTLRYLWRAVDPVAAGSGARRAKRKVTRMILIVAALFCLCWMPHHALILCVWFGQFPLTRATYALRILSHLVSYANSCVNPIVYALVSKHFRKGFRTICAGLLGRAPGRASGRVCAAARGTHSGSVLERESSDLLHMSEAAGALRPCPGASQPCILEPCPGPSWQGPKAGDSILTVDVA
Compound,GPCR activation (heatmap value) (GAL2),GPCR activation (heatmap value) (CHRM5),GPCR activation (heatmap value) (PK1),GPCR activation (heatmap value) (OXTR),GPCR activation (heatmap value) (ADRB2),GPCR activation (heatmap value) (PTAFR),GPCR activation (heatmap value) (CNR1),GPCR activation (heatmap value) (GPR152),GPCR activation (heatmap value) (GPR35),GPCR activation (heatmap value) (CNR2),GPCR activation (heatmap value) (HTR6),GPCR activation (heatmap value) (BB3),GPCR activation (heatmap value) (GPR34),GPCR activation (heatmap value) (NPBW1),GPCR activation (heatmap value) (EDNRA),GPCR activation (heatmap value) (SSTR2),GPCR activation (heatmap value) (OPN5),GPCR activation (heatmap value) (OXGR1),GPCR activation (heatmap value) (GPR171),GPCR activation (heatmap value) (TAAR9),also measured
CC(C)Cc1ncc(CCCCNC(=N)N)[nH]c1=O [3-Homo],0.5878,-0.008955,-0.2718,0.4883,-0.1039,-0.1375,-0.2406,-0.3396,0.1027,0.8114,-0.2493,-0.2556,-0.6255,-0.4089,-0.554,0.327,-0.4496,0.2343,-0.9424,-0.5012,GPCR activation (heatmap value) (GAL1): -0.2703; GPCR activation (heatmap value) (TA1): 0.4199; GPCR activation (heatmap value) (MRGPRX1): 0.1239; GPCR activation (heatmap value) (NPY4R): 1.0914; GPCR activation (heatmap value) (DRD3): 0.04182; GPCR activation (heatmap value) (GHRHR): 0.5021; GPCR activation (heatmap value) (TAAR5): -0.4757; GPCR activation (heatmap value) (GPRC6A): -1.019; GPCR activation (heatmap value) (CXCR7): -1.352; GPCR activation (heatmap value) (CCKBR): 0.2356; GPCR activation (heatmap value) (GPR64): 0.7434; GPCR activation (heatmap value) (F2R): -0.4507; GPCR activation (heatmap value) (S1PR1): -0.03733; GPCR activation (heatmap value) (GPR135): -0.1206; GPCR activation (heatmap value) (TBXA2R): 0.3386; GPCR activation (heatmap value) (HCA3): -0.8056
CC(C)Cc1ncc(CCCNC(=N)N)[nH]c1=O [compound 3],0.1995,0.7902,-0.4687,0.1075,0.6209,-0.05027,0.2678,-1.289,-0.5823,-0.04866,0.5944,0.3176,0.3024,-0.8992,-0.2835,-0.806,-1.123,-0.2265,0.9197,-0.2146,GPCR activation (heatmap value) (GAL1): -0.09983; GPCR activation (heatmap value) (TA1): -0.5267; GPCR activation (heatmap value) (MRGPRX1): -1.215; GPCR activation (heatmap value) (NPY4R): 0.793; GPCR activation (heatmap value) (DRD3): 0.613; GPCR activation (heatmap value) (GHRHR): 0.3749; GPCR activation (heatmap value) (TAAR5): -0.8641; GPCR activation (heatmap value) (GPRC6A): -0.9035; GPCR activation (heatmap value) (CXCR7): -0.2802; GPCR activation (heatmap value) (CCKBR): 0.2979; GPCR activation (heatmap value) (GPR64): 0.632; GPCR activation (heatmap value) (F2R): -0.02389; GPCR activation (heatmap value) (S1PR1): -0.122; GPCR activation (heatmap value) (GPR135): -1.115; GPCR activation (heatmap value) (TBXA2R): 0.04774; GPCR activation (heatmap value) (HCA3): -0.032
